Among the test systems are SK-OV-3 ovarian; CAKI-1 renal; MCF7 breast; HOP-62 NSCLC; UACC-62 melanoma; HS 578T breast; U251 CNS; RXF 393 renal; K-562 leukemia; SR leukemia.
Common to all, as to test: NCI-60 cell line screen, 48 h

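In this assay, cells in 96-well plates receive the compound at five concentrations for 48 hours. Endpoints are linearly interpolated between the surrounding concentrations. At the GI50, growth is halved. Definition used: TGI = concentration required for complete inhibition of growth.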

The values below come from PubChem BioAssay (NCI).

As to `COP(=O)(OC)C12CCOCCN1c1ccccc1C2=O` (stereo not drawn), the TGI with SK-OV-3 ovarian, in the assay with CAKI-1 renal, with MCF7 breast, in the assay with HOP-62 NSCLC, in the assay with UACC-62 melanoma and in the assay with HS 578T breast was over 100 µM throughout. The compound also came in with a TGI in the assay with U251 CNS of over 100 µM.

Turning to `O=C(OCc1ccccc1)C(Cc1ccccc1)N(Cc1ccccc1)Cc1ccccc1` (stereo not drawn), the TGI in the assay on RXF 393 renal, with SK-OV-3 ovarian, with CAKI-1 renal, with HOP-62 NSCLC, with UACC-62 melanoma and with K-562 leukemia was over 100 µM in each case. The TGI in the assay on SR leukemia and with U251 CNS was over 100 µM in each case.

`CCOC(=O)C(C)c1nc2c(Cl)c3ncccc3cc2[nH]c1=O` (stereo not drawn): the TGI in the assay with RXF 393 renal is over 100 µM; in the assay with SK-OV-3 ovarian, over 100 µM; in the assay with CAKI-1 renal it was over 100 µM; with HOP-62 NSCLC it was over 100 µM; with UACC-62 melanoma, over 100 µM; with HS 578T breast, 90.4 µM. The figures for the TGI in the assay on K-562 leukemia, in the assay on SR leukemia and in the assay on U251 CNS were over 100 µM, 99.2 µM and over 100 µM, respectively.

As for `Cc1cc2nc(-c3cc(C(C)(C)C)c(O)c(C(C)(C)C)c3)[nH]c2cc1C`, the TGI in the assay on RXF 393 renal was over 100 µM; in the assay with SK-OV-3 ovarian, over 100 µM; in the assay on CAKI-1 renal, over 26.2 µM; with HOP-62 NSCLC, over 100 µM; in the assay with UACC-62 melanoma, 2.74 µM; in the assay with HS 578T breast it was over 100 µM. The TGI with K-562 leukemia was over 43.1 µM; in the assay on SR leukemia, over 31.7 µM; in the assay with U251 CNS it was over 34.3 µM.

For the compound `O=C([CH-]C(=O)c1ccccc1)c1ccccc1.O=C([CH-]C(=O)c1ccccc1)c1ccccc1.[O]=[U+2]=[O]`, the GI50 was 2.35 µM in the assay with RXF 393 renal; 4.01 µM with SK-OV-3 ovarian; 3.79 µM with CAKI-1 renal; 2.43 µM in the assay with UACC-62 melanoma; 3.06 µM with U251 CNS. The TGI with RXF 393 renal is 6.22 µM; in the assay on SK-OV-3 ovarian, 12.3 µM; with CAKI-1 renal it was 15.6 µM; with UACC-62 melanoma, 6.91 µM; with U251 CNS, over 100 µM.

`Cc1ccc(-c2c(C#N)c(-c3ccc([N+](=O)[O-])cc3)c(C#N)c(=O)n2NS(=O)(=O)c2ccccc2)cc1`: the TGI with RXF 393 renal is over 100 µM; in the assay on SK-OV-3 ovarian, over 100 µM; in the assay with CAKI-1 renal it was over 100 µM; in the assay with MCF7 breast, 54.1 µM; with HOP-62 NSCLC, over 100 µM; with UACC-62 melanoma it was 64 µM. For the same compound, the TGI with HS 578T breast was 33.1 µM; in the assay with K-562 leukemia, over 100 µM; with U251 CNS it was over 100 µM.

As for `Cc1ccc(S(=O)(=O)NC(=O)NNc2ccc(F)cc2)cc1`, the TGI in the assay on RXF 393 renal, in the assay with SK-OV-3 ovarian, with CAKI-1 renal, in the assay with MCF7 breast, in the assay with HOP-62 NSCLC and with UACC-62 melanoma was over 100 µM each time. The TGI with HS 578T breast is over 100 µM; with K-562 leukemia, over 58.2 µM; with U251 CNS it was over 100 µM.

For the compound `CC1(C)[C@@H](Cn2cnc3c(Cl)nc(N)nc32)CC[C@@]1(C)CO`, the TGI was over 100 µM with RXF 393 renal; over 100 µM in the assay on SK-OV-3 ovarian; over 100 µM in the assay with CAKI-1 renal; over 100 µM in the assay on MCF7 breast; over 100 µM in the assay on HOP-62 NSCLC; 38 µM in the assay on UACC-62 melanoma. Also, the TGI was 44.9 µM in the assay on HS 578T breast, over 100 µM in the assay with K-562 leukemia and over 100 µM in the assay with U251 CNS.

For `COc1cc(C=C2C(=O)NC(=S)NC2=O)cc(OC)c1OC`, the TGI in the assay on RXF 393 renal, with SK-OV-3 ovarian, with CAKI-1 renal, with MCF7 breast, in the assay on HOP-62 NSCLC and in the assay on UACC-62 melanoma was over 100 µM each time. The TGI in the assay with HS 578T breast, in the assay with K-562 leukemia and in the assay with U251 CNS was over 100 µM in each case.

Consider `CN1COCc2cc3cc4c(cc3nc21)OCCO4`, for which the TGI in the assay on RXF 393 renal, with SK-OV-3 ovarian, with CAKI-1 renal, in the assay on MCF7 breast, in the assay with HOP-62 NSCLC and with UACC-62 melanoma was over 100 µM each time. Moreover, the TGI in the assay with K-562 leukemia and in the assay on U251 CNS was over 100 µM each time.

For the compound `CCCCN(CCCC)C(=C(C(Cl)=C(Cl)Cl)[N+](=O)[O-])N(CCCC)CCCC`, the TGI in the assay on SK-OV-3 ovarian is over 100 µM; in the assay with CAKI-1 renal it was over 100 µM; in the assay with HOP-62 NSCLC, over 100 µM; in the assay on UACC-62 melanoma, over 100 µM; with K-562 leukemia, 4.69 µM; with U251 CNS it was over 100 µM.

With `COc1ccc2c(c1)CCN=C2c1ccccc1CCCCl`, the TGI in the assay on RXF 393 renal was 82.1 µM; in the assay with SK-OV-3 ovarian, over 100 µM; in the assay with CAKI-1 renal it was 70.2 µM; in the assay with MCF7 breast, over 100 µM; in the assay with HOP-62 NSCLC, over 100 µM; in the assay with UACC-62 melanoma it was over 100 µM. For the same compound, the TGI with HS 578T breast is 96.5 µM; in the assay on K-562 leukemia, over 100 µM; in the assay on U251 CNS, over 100 µM.

`c1csc(-c2c3ccc(=[N+]4CCCCC4)cc-3oc3cc(N4CCCCC4)ccc23)c1`: the GI50 with RXF 393 renal was 0.133 µM; in the assay with SK-OV-3 ovarian, 0.212 µM; with CAKI-1 renal, 0.131 µM; in the assay with HOP-62 NSCLC, 0.0648 µM; in the assay on UACC-62 melanoma, 0.159 µM; in the assay on HS 578T breast, 0.0563 µM. Moreover, the TGI worked out at 0.273 µM in the assay on RXF 393 renal; 0.682 µM in the assay with SK-OV-3 ovarian; 0.305 µM in the assay with CAKI-1 renal; 0.199 µM in the assay on HOP-62 NSCLC; 0.356 µM with UACC-62 melanoma; 0.565 µM in the assay on HS 578T breast.

Take `C[C@]1(S(=O)(=O)c2ccccc2)C[C@H]2N(Cc3ccccc3)[C@@H]1CCC21OCCO1`: the TGI in the assay on RXF 393 renal, in the assay with SK-OV-3 ovarian, in the assay with CAKI-1 renal, in the assay with MCF7 breast, with HOP-62 NSCLC and in the assay with UACC-62 melanoma was over 100 µM each time. Also, the TGI in the assay with HS 578T breast, with K-562 leukemia and in the assay with U251 CNS was over 100 µM each time.
